Where two headings read alike, the source gives them in different places.
Biological target: T1, cloned human CCR8 receptor stably expressed in L1.2 cells (Homo sapiens, UniProt P51685)
T1 construct: expressed in transfected cells
Experiment: whole cell binding screen: inhibition of biotinylated human I309 binding to CCR8 (FMAT 8100 HTS)
Settings: biotinylated human I-309, 10 point concentration response starting at 10 μM
In short: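 Ten-point dilutions, top 10 μM final, were tested for displacing biotin-I309 from hCCR8-transfected L1.2 cells in HEPES-buffered HBSS with BSA and sodium azide, mixing 0.5 h before FMAT 8100 detection. Signals converted to percent inhibition against untreated wells and a 100 nM excess unlabeled I309 control.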

[1] = L1.2/hCCR8 cells, read-out: Ki of compounds to inhibit I-309 binding to CCR8

T1 sequence (P51685 whole entry): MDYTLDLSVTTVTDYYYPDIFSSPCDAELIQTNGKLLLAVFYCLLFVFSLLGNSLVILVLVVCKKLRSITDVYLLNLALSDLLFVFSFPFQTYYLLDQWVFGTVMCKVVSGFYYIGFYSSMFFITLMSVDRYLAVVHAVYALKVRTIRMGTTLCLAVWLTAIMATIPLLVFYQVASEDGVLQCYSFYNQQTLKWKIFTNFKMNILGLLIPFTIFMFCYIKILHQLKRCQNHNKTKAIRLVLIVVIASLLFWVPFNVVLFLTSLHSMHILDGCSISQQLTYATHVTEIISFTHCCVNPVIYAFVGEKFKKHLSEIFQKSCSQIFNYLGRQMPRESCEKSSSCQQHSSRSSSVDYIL

Structure (SMILES)	Ki (Ki of compounds to inhibit I-309 binding to CCR8, L1.2/hCCR8 cells)	Ki [1]
CC(C)(C)OC(=O)N1CCC(NS(=O)(=O)c2ccc(C(=O)NC3CCOCC3)c3ccccc23)CC1 [Compound F-15, 4-[4-(Tetrahydro-pyran-4-ylcarbamoyl)-naphthalene-1-sulfonylamino]-piperidine-1-carboxylic acid tert-butyl ester]		< 30000 nM
O=C(NC1CCOCC1)c1ccc(S(=O)(=O)NC2CCNCC2)c2ccccc12 [Compound F-18, 4-(Piperidin-4-ylsulfamoyl)-naphthalene-1-carboxylic acid (tetrahydro-pyran-4-yl)-amide]		< 30000 nM
CCCC(=O)N1CCC(NS(=O)(=O)c2ccc(C(=O)NC3CCOCC3)c3ccccc23)CC1 [Compound F-24, 4-(1-Butyryl-piperidin-4-ylsulfamoyl)-naphthalene-1-carboxylic acid (tetrahydro-pyran-4-yl)-amide]		< 1000 nM
CCOC(=O)N1CCC(NS(=O)(=O)c2ccc(C(=O)N(C)C3CCCCC3)c3ccccc23)CC1 [Compound F-27, 4-[4-(Cyclohexyl-methyl-carbamoyl)-naphthalene-1-sulfonylamino]-piperidine-1-carboxylic acid ethyl ester]		< 500 nM
CN(C)C(=O)N1CCC(NS(=O)(=O)c2ccc(C(=O)N(C)C3CCCCC3)c3ccccc23)CC1 [Compound F-28, 4-[4-(Cyclohexyl-methyl-carbamoyl)-naphthalene-1-sulfonylamino]-piperidine-1-carboxylic acid dimethylamide]		< 500 nM
O=C1c2ccccc2C(=O)N1Cc1ccc(S(=O)(=O)NC2CCCCC2)c2ccccc12 [Compound G-4, 4-(1,3-Dioxo-1,3-dihydro-isoindol-2-ylmethyl)-naphthalene-1-sulfonic acid cyclohexylamide]		< 30000 nM
Cc1ccccc1C(=O)NCc1ccc(S(=O)(=O)NC2CCCCC2)c2ccccc12 [Compound G-5, N-(4-Cyclohexylsulfamoyl-naphthalen-1-ylmethyl)-2-methyl-benzamide]		< 1000 nM
O=C(NCc1ccc(S(=O)(=O)NC2CCCCC2)c2ccccc12)c1ccco1 [Compound G-6, Furan-2-carboxylic acid (4-cyclohexylsulfamoyl-naphthalen-1-ylmethyl)-amide]		< 1000 nM
CCOC(=O)N1CCC(NS(=O)(=O)c2ccc(CNCc3ccc(Cl)cc3)c3ccccc23)CC1 [Compound G-7, 4-{4-[(4-Chloro-benzylamino)-methyl]-naphthalene-1-sulfonylamino}-piperidine-1-carboxylic acid ethyl ester]		< 500 nM
CCOC(=O)N1CCC(NS(=O)(=O)c2ccc(CNC3CCCCC3)c3ccccc23)CC1 [Compound G-8, 4-(4-Cyclohexylainnomethyl-naphthalene-1-suffonylamino)-piperidine-1-carboxylic acid ethyl ester]		< 500 nM
CCOC(=O)N1CCC(NS(=O)(=O)c2ccc(CNCc3ncc[nH]3)c3ccccc23)CC1 [Compound G-9, 4-(4-{[(lH-Imidazol-2-ylmethyl)-amino]-methyl}-naphthalene-1-sulfonylamino)-piperidine-1-carboxylic acid ethyl ester]		< 30000 nM
CCOC(=O)N1CCC(NS(=O)(=O)c2ccc(CNCc3ccc(OC)cc3)c3ccccc23)CC1 [Compound G-10, 4-{4-[(4-Methoxy-benzylamino)-methyl]-naphthalene-1-sulfonylamino}-piperidine-1-carboxylic acid ethyl ester]		< 500 nM
CCOC(=O)N1CCC(NS(=O)(=O)c2ccc(CNCc3cccnc3)c3ccccc23)CC1 [Compound G-12, 4-(4-{[(Pyridin-3-ylmethyl)-amino]-methyl}-naphthalene-1-sulfonylamino)-piperidine-1-carboxylic acid ethyl ester]		< 500 nM
CCOC(=O)N1CCC(NS(=O)(=O)c2ccc(CNCc3ccco3)c3ccccc23)CC1 [Compound G-13, 4-(4-{[(Furan-2-ylmethyl)-amino]-methyl}-naphthalene-1-sulfonylamino)-piperidine-1-carboxylic acid ethyl ester]		< 500 nM
CCOC(=O)N1CCC(NS(=O)(=O)c2ccc(CNCc3ccoc3)c3ccccc23)CC1 [Compound G-14, 4-(4-{[(Furan-3-ylmethyl)-amino]-methyl}-naphthalene-1-sulfonylamino)-piperidine-1-carboxylic acid ethyl ester]		< 500 nM
CCOC(=O)N1CCC(NS(=O)(=O)c2ccc(CNCc3ccncc3)c3ccccc23)CC1 [Compound G-15, 4-(4-{[(Pyridin-4-ylmethyl)-ainno]-methyl}-naphthalene-1-sulfonylamino)-piperidine-1-carboxylic acid ethyl ester]		< 1000 nM
CCOC(=O)N1CCC(NS(=O)(=O)c2ccc(CN(CC)C3CCCCC3)c3ccccc23)CC1 [Compound G-20, 4-{4-[(Cyclohexyl-ethyl-amino)-methyl]-naphthalene-1-sulfonylamino}-piperidine-1-carboxylic acid ethyl ester]		< 500 nM
CCOC(=O)N1CCC(NS(=O)(=O)c2ccc(CNCc3ccccc3Cl)c3ccccc23)CC1 [Compound G-21, 4-{4-[(2-Chloro-benzylamino)-methyl]-naphthalene-1-sulfonylamino}-piperidine-1-carboxylic acid ethyl ester]		< 500 nM

Results, then the molecule that gave them:

Ki (Ki of compounds to inhibit I-309 binding to CCR8, L1.2/hCCR8 cells)	Ki [1]	Structure (SMILES)
< 500 nM		CCOC(=O)N1CCC(NS(=O)(=O)c2ccc(C(=O)Nc3ccccc3C)c3ccccc23)CC1 [Compound F-11, 4-(4-o-Tolylcarbamoyl-naphthalene-1-sulfonylamino)-piperidine-1-carboxylic acid ethyl ester]
	< 500 nM	Cc1ccccc1NC(=O)c1ccc(S(=O)(=O)NC2CCN(C(=O)N(C)C)CC2)c2ccccc12 [Compound F-12, 4-(4-o-Tolylcarbamoyl-naphthalene-1-sulfonylamino)-piperidine-1-carboxylic acid dimethylamide]
	< 500 nM	Cc1cccc(NC(=O)c2ccc(S(=O)(=O)NC3CCN(C(=O)OC(C)(C)C)CC3)c3ccccc23)c1C [Compound F-13, 4-[4-(2,3-Dimethyl-phenylcarbamoyl)-naphthalene-1-sulfonylamino]-piperidine-1-carboxylic acid tert-butyl ester]
	< 1000 nM	CC(C)(C)OC(=O)N1CCC(NS(=O)(=O)c2ccc(C(=O)Nc3ccccc3Cl)c3ccccc23)CC1 [Compound F-14, 4-[4-(2-Chloro-phenylcarbamoyl)-naphthalene-1-sulfonylamino]-piperidine-1-carboxylic acid tert-butyl ester]
	< 30000 nM	Cc1cccc(NC(=O)c2ccc(S(=O)(=O)NC3CCNCC3)c3ccccc23)c1C [Compound F-16, 4-(Piperidin-4-ylsulfamoyl)-naphthalene-1-carboxylic acid (2,3-dimethyl-phenyl)-amide]
	< 30000 nM	O=C(Nc1ccccc1Cl)c1ccc(S(=O)(=O)NC2CCNCC2)c2ccccc12 [Compound F-17, 4-(Piperidin-4-ylsulfamoyl)-naphthalene-1-carboxylic acid (2-chloro-phenyl)-amide]
	< 500 nM	CCCC(=O)N1CCC(NS(=O)(=O)c2ccc(C(=O)Nc3cccc(C)c3C)c3ccccc23)CC1 [Compound F-19, 4-(1-Butyryl-piperidin-4-ylsulfamoyl)-naphthalene-1-carboxylic acid (2,3-dimethyl-phenyl)-amide]
	< 500 nM	Cc1cccc(NC(=O)c2ccc(S(=O)(=O)NC3CCN(C(=O)N(C)C)CC3)c3ccccc23)c1C [Compound F-20, 4-[4-(2,3Dimethyl-phenylcarbamoyl)-naphthalene-1-sulfonylamino]-piperidine-1-carboxylic acid dimethylamide]
	< 500 nM	CN(C)C(=O)N1CCC(NS(=O)(=O)c2ccc(C(=O)NC3CCOCC3)c3ccccc23)CC1 [Compound F-21, 4-[4-(Tetrahydro-pyran-4-ylcarbamoyl)-naphthalene-1-sulfonylamino]-piperidine-1-carboxylic acid dimethylamide]
	< 500 nM	CCCC(=O)N1CCC(NS(=O)(=O)c2ccc(C(=O)Nc3ccccc3Cl)c3ccccc23)CC1 [Compound F-22, 4-(1-Butyryl-piperidin-4-ylsulfamoyl)-naphthalene-1-carboxylic acid (2-chloro-phenyl)-amide]
	< 500 nM	CN(C)C(=O)N1CCC(NS(=O)(=O)c2ccc(C(=O)Nc3ccccc3Cl)c3ccccc23)CC1 [Compound F-23, 4-[4-(2-Chloro-phenylcarbamoyl)-naphthalene-1-sulfonylamino]-piperidine-1-carboxylic acid dimethylamide]
	< 500 nM	CCCC(=O)N1CCC(NS(=O)(=O)c2ccc(C(=O)Nc3ccccc3)c3ccccc23)CC1 [Compound F-25, 4-(1-Butyryl-piperidin-4-ylsulfamoyl)-naphthalene-1-carboxylic acid phenylamide]
	< 500 nM	CCCC(=O)N1CCC(NS(=O)(=O)c2ccc(C(=O)Nc3cccc(C)c3)c3ccccc23)CC1 [Compound F-26, 4-(1-Butyryl-piperidin-4-ylsulfamoyl)-naphthalene-1-carboxylic acid m-tolylainde]
	< 500 nM	CCOC(=O)N1CCC(NS(=O)(=O)c2ccc(CNC(=O)c3ccccc3C)c3ccccc23)CC1 [Compound G-1, 4-{4-[(2-Methyl-benzoylamino)-methyl]-naphthalene-1-sulfonylamino}-piperidine-1-carboxylic acid ethyl ester]
	< 500 nM	CCOC(=O)N1CCC(NS(=O)(=O)c2ccc(CNC(=O)c3cccc(C)c3C)c3ccccc23)CC1 [Compound G-2, 4-{4-[(2,3-Dimethyl-benzoylamino)-methyl]-naphthalene-1-sulfonylamino}-piperidine-1-carboxylic acid ethyl ester]
	< 500 nM	CCOC(=O)N1CCC(NS(=O)(=O)c2ccc(CNCc3ccccc3C)c3ccccc23)CC1 [Compound G-11, 4-{4-[(2-Methyl-benzylamino)-methyl]-naphthalene-1-sulfonylamino}-piperidine-1-carboxylic acid ethyl ester]
